Laboratory results reported in patent US9308269B2, “Stable liquid formulations of volatile gas anesthetics” (UNIVERSITY OF MIAMI, priority 2011, dated 2016).

Key:
[1] = system: Murine insulinoma beta-TC3 (β-TC3) cells; assay: Anesthetic preconditioning against H2O2 oxidative stress, cell viability by FACS; type: cell-based
Description: Murine insulinoma beta-TC3 (β-TC3) cells were used as a surrogate source of β-cells in vitro. […] FIG. 26 is illustrative of the experimental design for the present study. Cells were then harvested and assayed for viability via FACS analysis (Live/Dead far red, and TMRE, mitochondrial fluorescent dye to detect apoptosis). Data was analyzed using ANOVA with post hoc Tukey for multiple comparisons.

p38 MAPK = p38 MAPK activity after H2O2 oxidative stress in β-TC3 cells; type: cell-based, murine
Description: Murine insulinoma beta-TC3 (β-TC3) cells were used as a surrogate source of β-cells in vitro. The β-TC3 cells were incubated for 48 hours, and then subdivided into four (4) groups, with three (3) series of cell cultures per group repeated in triplicate. Group 1 were sham cultured β-TC3 cells; group 2 cells were subdivided into those pre-treated with 0.5 mM isoflurane for 15 minutes or 60 minutes without H2O2, followed by an isoflurane washout; group 3 cells were exposed only to 0.3 mM H2O2 for 3 hours; group 4 cells were pre-treated with isoflurane for 15 minutes or 60 minutes, as in group 2, followed by an isoflurane washout and exposure to 0.3 mM H2O2 for 3 hours. FIG. 26 is illustrative of the experimental design for the present study.

[2] = Isoflurane concentration in stored emulsion measured by weight; type: physicochemical; conditions: open container, about 21° C.
Description: A standard curve for determining isoflurane concentration was generated based upon 1 mL mixtures of a base solution, i.e., 2% w/v surfactant plus PBS or HBSS; 10% v/v FC-43; and, various known v/v % isoflurane concentrations. A 1 mL aliquot of each of these mixtures was weighed and compared to its expected weight based on the density of each component, and a predicted density of each mixture. The predicted or expected density of each mixture was determined by the following equation: ρexpected=ν%A*ρA+ν%BρB+ν%CρC
where ρ is the density, and A, B, C are the surfactant solution, PCF or FC-43, and isoflurane, respectively. FIG. 8 is a standard curve generated in accordance with the procedure of this example for the determination of isoflurane concentration by weight. The measured values were compared to the theoretical values, or ρexpected, and a high degree of correlation, R^2>0.99, was observed, as illustrated in FIG. 9.
From the standard curve generated of the mixtures, the content of isoflurane in any emulsion can be determined by weighing a known volume, for example, a 1 mL aliquot. and tabulating the known portions of the weight, e.g., the volume percentages of the base solution and PCF, i.e., FC-43, and calculating the unknown volume by dividing the remaining weight by the density of pure isoflurane. […]

[3] = Isoflurane concentration and loss over time measured by ATR-FTIR (1300-1260 cm^-1); type: physicochemical; conditions: exposed to air
Description: In accordance with the present example, ATR-FTIR spectra were recorded on a PerkinElmer Spectrum 100 FTIR spectrometer equipped with a KBr beam splitter, 1 bounce Universal Di/ZnSe ATR sampling accessory, and electronically, temperature-stabilized fast recovery deuterated triglycine sulfate detector. The spectra generated are an average of four scans at a resolution of 4 cm^−1. Emulsion samples of 50 μL each were obtained from each of the emulsions described below, and the emulsion samples were measured by covering the measurement surface. Standard curves were generated by manufacturing emulsions of known volume percentage isoflurane by gravimetric determination, performing ATR-FTIR measurements and then, taking area under the curve (“AUC”) determinations of peaks in the region specific to fluorine bond vibration (1300-1000 cm^−1). […]
From these peaks, measurements of the area under the curve (“AUC”) for each of the two spectral regions, once again, 1300-1260 cm^−1 and 1225-1011 cm^−1, were used to generate standard curves of isoflurane concentration. […] The two curves were generated to evaluate the possibility of isoflurane loss during the emulsification process, as a comparison between the two standard curves would allow for assessment of error in emulsion manufacture and allow for more accurate quantification. […]

SMILES | β-TC3 cell survival compared to controls ([1]; 0.3 mM H2O2 for 3 hours alone) [%] | p38 MAPK activity (p38 MAPK; treatment by H2O2 alone) | time to essentially complete evaporation [2] | fraction of sample evaporated ([2]; after about 0.2 hours) [%] | time to complete evaporation on ATR-FTIR crystal [3] [s] | β-TC3 cell survival compared to controls ([1]; 0.5 mM isoflurane pretreatment 15 minutes, washout, then 0.3 mM H2O2 for 3 hours) [%] | β-TC3 cell survival compared to controls ([1]; 0.5 mM isoflurane pretreatment 60 minutes, washout, then 0.3 mM H2O2 for 3 hours) [%] | p38 MAPK activity (p38 MAPK; isoflurane pretreatment, compared to cells exposed to H2O2 alone)
OO [H2O2, hydrogen peroxide] | 44±13 | increased protein kinase activity | – | – | – | – | – | –
FC(F)OC(Cl)C(F)(F)F (centres unmarked) [isoflurane] | – | – | over 0.5 hours | ~50 | ≤ 10 | 98±2 | 105±0 | significantly decreased p38 MAPK activity
